Measured values reported in PubChem BioAssay (NCI).
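Cells were grown in 96-well plates and exposed to each compound for 48 hours at five concentrations; endpoints were interpolated linearly between bracketing concentrations, or set to the highest concentration if not reached. At the GI50, growth is halved. TGI: total growth inhibition.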

Legend:
Assay in all cases: DTP human tumour cell line panel, 48 h
SW-620 colon = test system: SW-620 colon
TK-10 renal = test system: TK-10 renal
U251 CNS = test system: U251 CNS
UACC-62 melanoma = test system: UACC-62 melanoma
A549 NSCLC = test system: A549 NSCLC
BT-549 breast = test system: BT-549 breast
NCI-H522 lung = test system: NCI-H522 lung
HOP-92 NSCLC = test system: HOP-92 NSCLC
SN12C renal = test system: SN12C renal
OVCAR-5 ovarian = test system: OVCAR-5 ovarian
T-47D breast = test system: T-47D breast
SF-295 CNS = test system: SF-295 CNS
DU-145 prostate = test system: DU-145 prostate
LOX IMVI melanoma = test system: LOX IMVI melanoma
A498 renal = test system: A498 renal
SK-OV-3 ovarian = test system: SK-OV-3 ovarian
EKVX NSCLC = test system: EKVX NSCLC
NCI/ADR-RES ovarian = test system: NCI/ADR-RES ovarian
KM12 colon = test system: KM12 colon
NCI-H23 lung = test system: NCI-H23 lung
NCI-H460 lung = test system: NCI-H460 lung
MALME-3M melanoma = test system: MALME-3M melanoma
HCC-2998 colon = test system: HCC-2998 colon
PC-3 prostate = test system: PC-3 prostate
HCT-15 colon = test system: HCT-15 colon
MCF7 breast = test system: MCF7 breast
SNB-19 CNS = test system: SNB-19 CNS
IGROV1 ovarian = test system: IGROV1 ovarian
RPMI-8226 leukemia = test system: RPMI-8226 leukemia
UO-31 renal = test system: UO-31 renal
OVCAR-3 ovarian = test system: OVCAR-3 ovarian
SK-MEL-5 melanoma = test system: SK-MEL-5 melanoma
HOP-62 NSCLC = test system: HOP-62 NSCLC
OVCAR-4 ovarian = test system: OVCAR-4 ovarian
786-0 renal = test system: 786-0 renal
SK-MEL-2 melanoma = test system: SK-MEL-2 melanoma
SF-268 CNS = test system: SF-268 CNS
RXF 393 renal = test system: RXF 393 renal
COLO 205 colon = test system: COLO 205 colon
HS 578T breast = test system: HS 578T breast
UACC-257 melanoma = test system: UACC-257 melanoma
CAKI-1 renal = test system: CAKI-1 renal
MDA-MB-435 = test system: MDA-MB-435
OVCAR-8 ovarian = test system: OVCAR-8 ovarian
CCRF-CEM leukemia = test system: CCRF-CEM leukemia
M14 melanoma = test system: M14 melanoma
MOLT-4 leukemia = test system: MOLT-4 leukemia
SK-MEL-28 melanoma = test system: SK-MEL-28 melanoma
K-562 leukemia = test system: K-562 leukemia
MDA-MB-231 breast = test system: MDA-MB-231 breast
HL-60(TB) leukemia = test system: HL-60(TB) leukemia
SF-539 CNS = test system: SF-539 CNS
SR leukemia = test system: SR leukemia
ACHN renal = test system: ACHN renal
HT29 colon = test system: HT29 colon
HCT-116 colon = test system: HCT-116 colon

## O=C1Nc2ccccc2C1(c1c[nH]c2ccccc12)c1c[nH]c2ccccc12
SW-620 colon
  GI50: 3.22 µM
  TGI: 13.1 µM
TK-10 renal
  GI50: 2.31 µM
  TGI: 5.41 µM
U251 CNS
  GI50: 2.69 µM
  TGI: 7.49 µM
UACC-62 melanoma
  GI50: 1.96 µM
  TGI: 5.09 µM
A549 NSCLC
  GI50: 2.18 µM
  TGI: 5.31 µM
BT-549 breast
  GI50: 2.06 µM
  TGI: 4.68 µM
NCI-H522 lung
  GI50: 2.01 µM
  TGI: 4.71 µM
HOP-92 NSCLC
  GI50: 1.87 µM
  TGI: 4.95 µM
SN12C renal
  GI50: 1.89 µM
  TGI: 4.29 µM
OVCAR-5 ovarian
  GI50: 2.52 µM
  TGI: 7.6 µM
T-47D breast
  GI50: 1.99 µM
  TGI: 4.69 µM
SF-295 CNS
  GI50: 2.02 µM
  TGI: 4.7 µM
DU-145 prostate
  GI50: 2.09 µM
  TGI: 4.2 µM
LOX IMVI melanoma
  GI50: 1.7 µM
  TGI: 3.32 µM
A498 renal
  GI50: 1.81 µM
  TGI: 3.63 µM
SK-OV-3 ovarian
  GI50: 2.72 µM
  TGI: 7.74 µM
EKVX NSCLC
  GI50: 1.7 µM
  TGI: 3.84 µM
NCI/ADR-RES ovarian
  GI50: 2.15 µM
  TGI: 5.03 µM
KM12 colon
  GI50: 2.3 µM
  TGI: 5.96 µM
NCI-H23 lung
  GI50: 2.08 µM
  TGI: 4.48 µM
NCI-H460 lung
  GI50: 2.84 µM
  TGI: 8.21 µM
MALME-3M melanoma
  GI50: 2.47 µM
  TGI: 6.93 µM
HCC-2998 colon
  GI50: 1.82 µM
  TGI: 3.75 µM
PC-3 prostate
  GI50: 2.05 µM
  TGI: 5.75 µM
HCT-15 colon
  GI50: 2.57 µM
  TGI: 7.69 µM
MCF7 breast
  GI50: 2.06 µM
  TGI: 4.74 µM
SNB-19 CNS
  GI50: 2.73 µM
  TGI: 8.35 µM
IGROV1 ovarian
  GI50: 2.04 µM
  TGI: 5.09 µM
RPMI-8226 leukemia
  GI50: 4.25 µM
  TGI: 38.5 µM
UO-31 renal
  GI50: 1.18 µM
  TGI: 3.04 µM
OVCAR-3 ovarian
  GI50: 2.14 µM
  TGI: 4.84 µM
SK-MEL-5 melanoma
  GI50: 2.18 µM
  TGI: 4.81 µM
HOP-62 NSCLC
  GI50: 1.93 µM
  TGI: 4.95 µM
OVCAR-4 ovarian
  GI50: 2.48 µM
  TGI: 7.45 µM
786-0 renal
  GI50: 2.01 µM
  TGI: 4.11 µM
SK-MEL-2 melanoma
  GI50: 2.08 µM
  TGI: 4.51 µM
SF-268 CNS
  GI50: 2.8 µM
  TGI: 13.9 µM
RXF 393 renal
  GI50: 1.94 µM
  TGI: 3.76 µM
COLO 205 colon
  GI50: 1.93 µM
  TGI: 3.86 µM
HS 578T breast
  GI50: 2.05 µM
  TGI: 5.16 µM
UACC-257 melanoma
  GI50: 3.67 µM
  TGI: 16.6 µM
CAKI-1 renal
  GI50: 1.85 µM
  TGI: 4.37 µM
MDA-MB-435
  GI50: 3.34 µM
  TGI: 11.7 µM
OVCAR-8 ovarian
  GI50: 2.15 µM
  TGI: 5.18 µM
CCRF-CEM leukemia
  GI50: 4.43 µM
  TGI: 45.8 µM
M14 melanoma
  GI50: 2.39 µM
  TGI: 7.17 µM
MOLT-4 leukemia
  GI50: 3.77 µM
  TGI: 28.9 µM
SK-MEL-28 melanoma
  GI50: 5.7 µM
  TGI: 20 µM
K-562 leukemia
  GI50: 3.94 µM
  TGI: > 100 µM
MDA-MB-231 breast
  GI50: 2.3 µM
  TGI: 5.96 µM
HL-60(TB) leukemia
  GI50: 3.72 µM
  TGI: 37.6 µM
SF-539 CNS
  GI50: 2.07 µM
  TGI: 4.31 µM
SR leukemia
  GI50: 4 µM
  TGI: > 100 µM
ACHN renal
  GI50: 1.82 µM
  TGI: 3.58 µM
HT29 colon
  GI50: 3.23 µM
  TGI: 11.4 µM
HCT-116 colon
  GI50: 2.48 µM
  TGI: 6.29 µM
